Tested on: S. pombe yeast cells
Assay: Respirometric assessment of viability of S. pombe yeast cells treated with toxicant (oxygen uptake, phosphorescent oxygen probe)
Format: cell-based
Conditions: S. pombe cells incubated with different concentrations of toxicant, aliquots at different time intervals; FIG. 5
Description: A solid-state oxygen probe comprising a thin film polymer coating of the phosphorescent dye platinum(II)-tetrakis(pentafluorophenyl)porphine (PtTFPP) and polycarbonate was used with the device 1 shown in FIG. 1. One milligram of PtTFPP is dissolved in 0.01% (w/v) solution of polycarbonate (M.ca. 60 000) in chloroform. One microlitre aliquotes of this solution were dispensed to the microwells and allowed to air dry for 10 minutes to produce thin film phosphorescent oxygen-sensitive coating inside the microwells.
S. pombe yeast cells were incubated with different concentrations of cadmium nitrate toxicant. Two μl aliquots were taken from each sample at different time intervals, and placed in the wells of microwell chambers coated with a PtTFPP-polycarbonate solid-state oxygen probe. The respiration profiles of samples were monitored as described in Example 1 above, together with a control sample containing the same concentration of test cells, but without the presence of a toxicant. The levels of oxygen uptake by each sample is evaluated on the basis of time profiles of the phosphorescent signal (initial slopes), compared to those obtained in the control sample. […] This could be extended to compare cells growing in the presence of necessary growth factors, undergoing survival factor deprivation, or undergoing apoptosis.

In the case of O=[N+]([O-])[O-].O=[N+]([O-])[O-].[Cd+2] [cadmium nitrate], the “oxygen uptake / initial slope of phosphorescent signal time profile, compared to control sample (cell viability)” value is reported as “decrease in the initial slope and oxygen uptake with respect to control sample”.
